Test results reported in ChEMBL document CHEMBL1201862, “PubChem BioAssay data set” (2004).
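48-hour exposure; five concentrations; linearly interpolated endpoints. The concentration for 50% growth inhibition is given as GI50.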 Calls of active or inactive are those of the source. Cut-off read from the data, not from the text of the source: active = GI50 up to about 1.1 µM and inactive = higher.

Columns and labels:
Assay in all cases: growth of human tumour cells (NCI), 48 h
COLO 205 = test system: COLO 205
A498 = test system: A498
M14 = test system: M14
UO-31 = test system: UO-31
SNB-75 = test system: SNB-75
NCI-H460 = test system: NCI-H460
Malme-3M = test system: Malme-3M
CCRF-CEM = test system: CCRF-CEM
SNB-78 = test system: SNB-78
HCT-15 = test system: HCT-15
SK-MEL-5 = test system: SK-MEL-5
M19-MEL = test system: M19-MEL
DLD-1 = test system: DLD-1
KM-20L2 = test system: KM-20L2
T47D = test system: T47D
MDA-MB-435 = test system: MDA-MB-435
DU-145 = test system: DU-145
PC-3 = test system: PC-3

| Compound | GI50 (COLO 205) | GI50 (A498) | GI50 (M14) | GI50 (UO-31) | GI50 (SNB-75) | GI50 (NCI-H460) | GI50 (Malme-3M) | GI50 (CCRF-CEM) | GI50 (SNB-78) | GI50 (HCT-15) [µM] | GI50 (SK-MEL-5) | GI50 (M19-MEL) | GI50 (DLD-1) | GI50 (KM-20L2) | GI50 (T47D) | GI50 (MDA-MB-435) | GI50 (DU-145) | GI50 (PC-3) |
| --- | --- | --- | --- | --- | --- | --- | --- | --- | --- | --- | --- | --- | --- | --- | --- | --- | --- | --- |
| CCOC(=O)NN1C(=O)C(=P(c2ccccc2)(c2ccccc2)c2ccccc2)C(C(=O)OC)=C1C | > 100 µM (inactive) | > 100 µM (inactive) | > 100 µM (inactive) | > 100 µM (inactive) | > 100 µM (inactive) | > 100 µM (inactive) | > 100 µM (inactive) | > 100 µM (inactive) | > 100 µM (inactive) | > 100 | > 100 µM (inactive) | > 100 µM (inactive) | > 100 µM (inactive) | > 100 µM (inactive) | – | – | – | – |
| O=c1c2cc(Br)ccc2nc(CNc2ccccc2)n1-c1ccccc1 | 17.4 µM (inactive) | 34.6 µM (inactive) | 20.7 µM (inactive) | > 43.9 µM (inactive) | 20.5 µM (inactive) | 17.4 µM (inactive) | 14.8 µM (inactive) | 3.09 µM (inactive) | 21.1 µM (inactive) | 16.7 | 15.6 µM (inactive) | 13.9 µM (inactive) | 9.02 µM (inactive) | 59 µM (inactive) | – | – | – | – |
| C1CCN2CC3CONC3C2C1 (stereo unspecified) | > 100 µM (inactive) | > 100 µM (inactive) | > 100 µM (inactive) | > 100 µM (inactive) | > 100 µM (inactive) | > 100 µM (inactive) | > 100 µM (inactive) | > 100 µM (inactive) | > 100 µM (inactive) | > 100 | > 100 µM (inactive) | > 100 µM (inactive) | > 100 µM (inactive) | > 100 µM (inactive) | – | – | – | – |
| CC1(O)C(C)(O)C(C)(O)C1(C)O (stereo unspecified) | > 100 µM (inactive) | > 100 µM (inactive) | > 100 µM (inactive) | > 100 µM (inactive) | > 100 µM (inactive) | > 100 µM (inactive) | > 100 µM (inactive) | > 100 µM (inactive) | > 100 µM (inactive) | > 100 | > 100 µM (inactive) | > 100 µM (inactive) | > 100 µM (inactive) | > 100 µM (inactive) | – | – | – | – |
| CCOC(=O)N1CCc2cc(OC)c(OC)cc2/C1=C\c1ccc(OC)c(OC)c1 | 21.6 µM (inactive) | 23.2 µM (inactive) | > 10 µM (inactive) | 21 µM (inactive) | 27 µM (inactive) | – | 20.2 µM (inactive) | 20.7 µM (inactive) | 35.7 µM (inactive) | 31 | – | 26.1 µM (inactive) | 37 µM (inactive) | 21.2 µM (inactive) | – | – | – | – |
| NCc1cccc(O)c1O | > 100 µM (inactive) | > 100 µM (inactive) | > 100 µM (inactive) | > 100 µM (inactive) | > 100 µM (inactive) | > 100 µM (inactive) | > 100 µM (inactive) | 55.3 µM (inactive) | > 100 µM (inactive) | > 100 | > 100 µM (inactive) | 48.9 µM (inactive) | 90.4 µM (inactive) | > 100 µM (inactive) | – | – | – | – |
| C=C1C[C@]23C[C@@]1(O)CC[C@H]2[C@@]12C=C[C@H](O)[C@@](C)(C(=O)O1)[C@H]2[C@@H]3C(=O)O [GIBBERELLIN A3] | > 100 µM (inactive) | – | > 100 µM (inactive) | > 100 µM (inactive) | > 100 µM (inactive) | > 100 µM (inactive) | > 100 µM (inactive) | > 100 µM (inactive) | > 100 µM (inactive) | > 100 | > 100 µM (inactive) | > 100 µM (inactive) | > 100 µM (inactive) | > 100 µM (inactive) | – | – | – | – |
| [N-]=[N+]=NC(c1cn(C2CC(O)C(CO)O2)c(=O)[nH]c1=O)C(Br)I (stereo unspecified) | > 100 µM (inactive) | – | > 100 µM (inactive) | > 100 µM (inactive) | > 100 µM (inactive) | > 100 µM (inactive) | > 100 µM (inactive) | > 100 µM (inactive) | > 100 µM (inactive) | > 100 | > 100 µM (inactive) | > 100 µM (inactive) | > 100 µM (inactive) | > 100 µM (inactive) | – | – | – | – |
| CCCCCCCCCCCCCCCC(=O)OCC1OC(OC)C2NP(=O)(N(CCCl)CCCl)OC1C2O (stereo unspecified) | 4.22 µM (inactive) | 10.6 µM (inactive) | 4.31 µM (inactive) | 7.36 µM (inactive) | 2.91 µM (inactive) | 0.54 µM (active) | 14.1 µM (inactive) | 0.142 µM (active) | 3.3 µM (inactive) | 3.14 | 7.53 µM (inactive) | 15.6 µM (inactive) | 2.7 µM (inactive) | 15.8 µM (inactive) | 2.73 µM (inactive) | 7.55 µM (inactive) | 7.41 µM (inactive) | 2.5 µM (inactive) |
| COC(=O)/C=C1\CCC(C)O1 (stereo unspecified) | > 100 µM (inactive) | – | > 100 µM (inactive) | > 100 µM (inactive) | 39.5 µM (inactive) | > 100 µM (inactive) | > 100 µM (inactive) | > 100 µM (inactive) | > 100 µM (inactive) | > 100 | > 100 µM (inactive) | > 100 µM (inactive) | > 100 µM (inactive) | > 100 µM (inactive) | – | – | – | – |
| Cc1c[n+]2c3ccccc3c3ccccc3c2s1.[O-][Cl+3]([O-])([O-])[O-] | 7.89 µM (inactive) | 55.6 µM (inactive) | 17.4 µM (inactive) | 3.25 µM (inactive) | 3.31 µM (inactive) | 5.94 µM (inactive) | 2.49 µM (inactive) | 4.1 µM (inactive) | 0.721 µM (active) | > 100 | 5.35 µM (inactive) | 4.2 µM (inactive) | 12 µM (inactive) | 1.33 µM (inactive) | – | – | – | – |
| CCCCC#COS(=O)(=O)c1ccc(C)cc1 | > 100 µM (inactive) | > 100 µM (inactive) | > 100 µM (inactive) | > 100 µM (inactive) | – | 79.3 µM (inactive) | > 100 µM (inactive) | 30.5 µM (inactive) | > 100 µM (inactive) | > 100 | > 100 µM (inactive) | 69.7 µM (inactive) | 57.9 µM (inactive) | 75.9 µM (inactive) | – | – | – | – |
